# Patent publication US9346832B2, “Gold complexes for use in the treatment of cancer” (University of Kwazulu-Natal, priority 2010, dated 2016)
# Where two headings read alike, the source gives them in different places.
# How the values were obtained:
# [1] = system: 60 human cancer cell lines; test: NCI-60 one-dose screen; assay type: cell-based; settings: single dose 10 μM
# Method: (§1) The gold(III) complexes of this invention were screened by the National Cancer Institute (NCI, USA) against their panel of 60 different human cancer cell lines. These screens initially entail a one-dose test for the compound at a high concentration (10 μM; e.g. FIGS. 5, 6 and 7). Compounds with a good cytotoxicity profile in the one-dose screen are then subjected to a five-dose screen for the full panel of sixty human cancer cell lines (the so-called 5-dose NCI-60 screen). In the full five-dose screen, the compound concentration is varied in five doses from 10^−8 M to 10^−4 M in order to establish a dose-response function of percentage cell growth versus the concentration of the test agent. […] Similar data will shortly be available for compounds 1.1Y^1b and 1.5Y^1a as these derivatives are in 5-dose screens currently at the NCI.
# The results of one-dose NCI-60 screens are noteworthy and merit some discussion as they quickly indicate activity profiles, cell-line specificity, and general cytotoxicity for the test agents across multiple human cancer cell lines. FIGS. 5, 6, and 7 set out the one-dose screening results for MA_AuPr (FIG. 5), KA_AumacroPr (FIG. 6), and KA_AuMelmPr (FIG. 7) obtained by the NCI. These three compounds are the parent derivatives that are representative of the three new types of gold(III) Schiff base chelate relevant to this invention. All other compounds synthesized as part of this invention have been similarly analyzed.
# calf thymus DNA = test: Calf-thymus DNA titration (absorption hypochroism); assay type: binding
# Method: FIG. 20 is a graph of the titration of MA_AuPr (1.1a) with calf-thymus DNA in aqueous pH 7 phosphate buffer at 37° C.
# The hypochroism of the absorption band of the complex at 383 nm was monitored as a function of added ctDNA. […] Ka is the equilibrium binding constant in M^−1, Ct is the total Au(III) complex concentration, and s is the binding site size.
# topoisomerase I = molecular target: T1, topoisomerase I (Homo sapiens, UniProt P11387); test: Supercoiled plasmid DNA relaxation assay with human topoisomerase I; assay type: biochemical
# T1 sequence (P11387 1-765): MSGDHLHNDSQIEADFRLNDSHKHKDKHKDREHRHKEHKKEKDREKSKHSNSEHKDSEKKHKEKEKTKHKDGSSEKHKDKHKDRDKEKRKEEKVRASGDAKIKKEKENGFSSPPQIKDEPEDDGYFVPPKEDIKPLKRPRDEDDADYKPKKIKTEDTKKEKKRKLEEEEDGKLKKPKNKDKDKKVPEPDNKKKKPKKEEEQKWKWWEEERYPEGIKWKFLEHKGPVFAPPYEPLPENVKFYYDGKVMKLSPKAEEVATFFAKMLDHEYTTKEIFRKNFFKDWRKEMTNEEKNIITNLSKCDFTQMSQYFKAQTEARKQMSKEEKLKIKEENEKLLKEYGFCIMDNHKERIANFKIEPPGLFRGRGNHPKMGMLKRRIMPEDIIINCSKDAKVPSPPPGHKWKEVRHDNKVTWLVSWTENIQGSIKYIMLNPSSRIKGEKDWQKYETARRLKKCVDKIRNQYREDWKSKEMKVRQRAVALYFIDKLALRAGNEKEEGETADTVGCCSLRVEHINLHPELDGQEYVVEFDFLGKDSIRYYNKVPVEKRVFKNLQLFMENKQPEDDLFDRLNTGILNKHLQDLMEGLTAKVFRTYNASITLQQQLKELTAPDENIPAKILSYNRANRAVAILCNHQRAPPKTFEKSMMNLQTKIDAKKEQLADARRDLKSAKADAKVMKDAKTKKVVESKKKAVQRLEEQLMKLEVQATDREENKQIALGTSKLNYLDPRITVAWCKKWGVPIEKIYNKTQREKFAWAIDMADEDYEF
# Method: FIG. 19 is a photograph of a gel showing the inhibition of human topoisomerase I by KA_AumacroPr as determined by supercoiled plasmid DNA relaxation assay (agarose gel electrophoresis).
# Lanes 2-12 have 5U of topoisomerase I. The enzyme fully relaxes supercoiled (SC) DNA in lanes 3-8 for KA_AumacroPr concentrations ranging from 0-50 nM.
# This is consistent with strong intercalative binding of KA_AumacroPr to the plasmid DNA probably before and after the action of topoisomerase I, and consequently inhibition of its normal turnover cycle.
# human cancer cell lines = test: Cytotoxicity summary (NCI-60 or independent cytotoxicity screen), Scheme 19; assay type: cell-based
# HeLa cells = test: HeLa cell cytotoxicity dose-response; assay type: cell-based
# Method: FIG. 9 is a graph of the dose-response curves (HeLa cells, pH 7.0, 37° C.) for three macrocyclic Au(III) chelates. IC50 values for the complexes against HeLa cells obtained from the least squares data fits (graph) are given in the 3rd column of the table.
# A summary of the average cytotoxicity data over 60 human cancer cell lines for 1.1a-1.1c and comparison with selected commercial and patented cytotoxic agents is shown in Scheme 7. […] The more abrupt the curve, the harder the dose-response function.
# [2] = Hydrolysis in aqueous solution; assay type: physicochemical; settings: aqueous / phosphate buffered aqueous solutions
# Source text: This is why binding to DNA of the intact chelate occurs (FIGS. 14 and 20). However, it is noteworthy that hydrolysis of a Au(III)-Npyrrole bond is a reaction that may be catalyzed by enzymes in plasma and could account for the plasma instability of MA_AuPr.
# [3] = molecular target: topoisomerase II (topo II) (Homo sapiens, UniProt P11388); test: Topoisomerase II (topo II) DNA cleavage assay with kinetoplast DNA, agarose gel; assay type: biochemical
# Sequence of topoisomerase II (topo II) (P11388 whole entry): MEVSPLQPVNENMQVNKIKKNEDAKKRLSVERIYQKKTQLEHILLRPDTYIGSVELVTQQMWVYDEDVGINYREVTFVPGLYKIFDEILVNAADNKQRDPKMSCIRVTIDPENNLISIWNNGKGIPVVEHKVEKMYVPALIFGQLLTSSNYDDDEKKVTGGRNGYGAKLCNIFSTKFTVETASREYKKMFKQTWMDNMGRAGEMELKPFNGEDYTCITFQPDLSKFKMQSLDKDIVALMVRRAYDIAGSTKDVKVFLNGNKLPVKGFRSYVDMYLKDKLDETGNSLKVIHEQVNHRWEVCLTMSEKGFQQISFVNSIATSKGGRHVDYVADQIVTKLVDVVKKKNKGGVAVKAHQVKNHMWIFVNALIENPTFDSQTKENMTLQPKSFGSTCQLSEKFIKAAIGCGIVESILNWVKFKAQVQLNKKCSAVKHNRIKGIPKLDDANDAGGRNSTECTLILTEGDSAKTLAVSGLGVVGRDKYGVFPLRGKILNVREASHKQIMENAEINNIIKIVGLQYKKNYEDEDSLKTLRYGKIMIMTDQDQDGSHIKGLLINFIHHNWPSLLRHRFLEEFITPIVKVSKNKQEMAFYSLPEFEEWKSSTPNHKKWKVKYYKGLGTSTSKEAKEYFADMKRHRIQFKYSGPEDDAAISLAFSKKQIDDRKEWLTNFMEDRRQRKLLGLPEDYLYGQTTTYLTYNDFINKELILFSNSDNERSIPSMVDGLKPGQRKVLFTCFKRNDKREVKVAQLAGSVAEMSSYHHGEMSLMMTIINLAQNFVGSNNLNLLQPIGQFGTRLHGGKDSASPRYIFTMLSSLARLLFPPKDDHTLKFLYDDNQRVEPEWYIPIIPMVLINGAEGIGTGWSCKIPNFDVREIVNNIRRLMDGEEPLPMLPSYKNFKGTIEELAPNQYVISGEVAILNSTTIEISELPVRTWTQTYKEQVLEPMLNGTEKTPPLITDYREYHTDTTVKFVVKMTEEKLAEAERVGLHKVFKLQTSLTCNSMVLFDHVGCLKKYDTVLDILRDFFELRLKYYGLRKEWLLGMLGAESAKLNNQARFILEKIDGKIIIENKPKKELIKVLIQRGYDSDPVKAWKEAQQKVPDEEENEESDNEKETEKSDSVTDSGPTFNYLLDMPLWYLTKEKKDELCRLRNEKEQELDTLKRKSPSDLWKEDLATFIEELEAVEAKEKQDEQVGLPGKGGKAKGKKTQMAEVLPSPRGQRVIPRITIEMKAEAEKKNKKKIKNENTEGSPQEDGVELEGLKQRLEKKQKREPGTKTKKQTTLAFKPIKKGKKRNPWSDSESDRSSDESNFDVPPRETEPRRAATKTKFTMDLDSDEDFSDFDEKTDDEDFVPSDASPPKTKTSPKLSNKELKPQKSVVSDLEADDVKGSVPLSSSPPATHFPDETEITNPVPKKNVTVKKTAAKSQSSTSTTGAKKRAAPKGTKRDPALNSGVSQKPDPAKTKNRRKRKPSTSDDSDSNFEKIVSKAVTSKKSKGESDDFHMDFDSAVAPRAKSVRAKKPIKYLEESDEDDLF
# Method: FIG. 18 is a photograph of an agarose gel electrophoresis topoisomerase II (topo II) DNA cleavage assay (66 ng kinetoplast DNA, 4 U topo II) as a function of the concentration of KA_AumacroPr (complex 1.1Y^1a) (top) and a graph of a standard dose-response function fit of the experimental titration data (top gel) with (solid line) and without (dashed line) a Hill coefficient. The maximum ESD from triplicate measurements is shown (15%). Lanes 1-4 of the gel contain catenated DNA (no topo II), decatenated DNA (topo II present), decatenated DNA (solvent control), and linear DNA, respectively. The lane marked VP-16 contained DNA, topo II, and etoposide (VP-16). Band labels: I, catenated DNA; II, open-circular (OC) DNA; III, linear DNA; IV, closed-covalently circular (CCC) DNA. […]
# The topo II inhibition assay for the Au(III) macrocycle KA_AumacroPr is shown above in FIG. 18.
# [4] = system: 60 human cancer cell lines; test: NCI-60 five-dose screen, mean cytotoxicity over 60 human cancer cell lines; assay type: cell-based; settings: mean over 60 human cancer cell lines
# Method: as §1
# The mean cytotoxicity data summarized in Scheme 7 were compiled over 60 human cancer cell lines from the NCI database. […] The dose-response curves for the bis(pyrrolide-imine) chelates of the invention are steeper, or harder, than those of all the compounds compared in Scheme 7.
# [5] = system: panel of human cancer cell lines; settings: cited from earlier work
# [6] = system: 3LL tumor (Lewis lung carcinoma); test: 3LL tumor growth in black mice; settings: 20 days, 26 μmol/kg once weekly
# [7] = system: 60 human cancer cell lines; settings: comparison drugs, NCI database, mean over 60 cell lines, cited from earlier work
compound,measurement,setting,value
"4,4′-{propane-1,3-diylbis[nitrilo(E)methylylide]}bis(5-methylimidazol-1-ide)gold(III) hexafluorophosphate(V) [KA_AuMelmPr]",one-dose screening result,[1],"Breast and leukemia cell lines were, as a group, the most sensitive"
"ClC1CN=Cc2ccc3[n]2[Au+][n]2c(ccc2-c2nc4ccccc4nc2-3)C=NC1.F[P-](F)(F)(F)(F)F (stereo not drawn) [Compound 1.1Y^1e, {13-chloro-12,14-dihydro-6,9:17,20-diepimino[1,6]diazacyclo-heptadecino[12,13-β]quinoxalinato}gold(III) hexafluorophosphate(V)]",Ka (calf thymus DNA),"calf thymus DNA; KA series: pH 7.0 15% DMSO-TRIS buffer at 25° C., listed as 1.1Y^1a",2.8(2) × 10^6 M^−1
same,Ka (calf thymus DNA),"calf thymus DNA; KA series: pH 7.0 15% DMSO-TRIS buffer at 25° C., listed as 1.1Y^1b",1.49(8) × 10^6 M^−1
same,action on human topoisomerase I,topoisomerase I; listed as 1.1Y^1b,catalytic inhibitor of human topoisomerase I
same,Cytotoxicity,human cancer cell lines,active
same,GI50,HeLa cells,~0.1 µM
same,IC50,"HeLa cells; pH 7.0, 37° C.",~3 µM
"C1=[N+]2CC[N+]3=Cc4ccc[n]4[Au-]23[n]2cccc21.F[P-](F)(F)(F)(F)F [Compound 1.2a, 2,2′-{ethane-1,2-diylbis[nitrilo(E)methylylidene]}bis(pyrrol-1-ido)gold(III) hexafluorophosphate(V)]",hydrolysis,[2],water may displace a pyrrole ring from the Au(III) ion
"C1=[N+]2CCC[N+]3=Cc4ccc5[n]4[Au-]23[n]2c1ccc2-c1nc2ccccc2nc1-5.F[P-](F)(F)(F)(F)F [KA_AumacroPr, {12,13-dihydro-14H-6,9:17,20-diepimino[1,6]diazacyclo-heptadecino[12,13-β]quinoxalinato}gold(III) hexafluorophosphate(V)]",action on human topoisomerase I,topoisomerase I,interferes with the normal operation of human topoisomerase I
same,concentrations at which the enzyme fully relaxes supercoiled DNA,topoisomerase I; 5U topoisomerase I,0 to 50 nM
same,concentrations at which topoisomerase I exhibits abnormal and incomplete substrate relaxation,"topoisomerase I; 5U topoisomerase I, up to 500 μM",≥ 500 nM
same,IC50,"[3]; 66 ng kinetoplast DNA, 4 U topo II, read-out: IC50 (enzyme inhibition)",4.8 µM
same,action on topo II,[3]; no trapped linear DNA cleavage products,pure catalytic inhibitor
same,one-dose screening result,[1],good cytotoxicity for the majority of the cell lines
"F[P-](F)(F)(F)(F)F.OC1CN=Cc2ccc[n]2[Au+][n]2cccc2C=NC1 (stereo not drawn) [MA_AuOH, 2,2{(2-hydroxypropane-1,3-diyl)bis[nitrilo(E)methyl-ylidene]}bis(pyrrol-1-ido)gold(III) hexafluorophosphate(V)]",Ka (calf thymus DNA),calf thymus DNA; MA series: pH 7.0 phosphate buffer at 37° C.,1.43(3) × 10^5 M^−1
same,CC50,"[4]; 50% cell death, read-out: LC50 (the source's name)",> 100 µM
same,GI50,[4]; 50% growth inhibition,> 100 µM
same,TGI (concentration for total growth inhibition),"[4]; 100% (total) growth inhibition, read-out: TGI or IC50",> 100 µM
same,one-dose screening result,[1],not sufficiently active
C1=Cc2nc1c(-c1ccccc1)c1ccc([n-]1)c(-c1ccccc1)c1nc(c(-c3ccccc3)c3ccc([n-]3)c2-c2ccccc2)C=C1.[Au+3].[Cl-] [[Au(TPP)]Cl],cytotoxicity to cancer cells versus non-cancerous cells,"[5]; MTT assay, PBMCs and CCD-19Lu cells",at least ten-fold higher cytotoxicity
C1=Cc2nc1c(-c1ccccc1)c1ccc([nH]1)c(-c1ccccc1)c1nc(c(-c3ccccc3)c3ccc([nH]3)c2-c2ccccc2)C=C1 [[Zn^II(TPP)]],IC50,[5]; literature values,> 50 µM
"N.N.[Cl][Pt][Cl] [cisplatin, cis-[PtCl2(NH3)2]]",reduction of 3LL tumor growth rate,[6],76%
same,GI50,[7]; 50% growth inhibition,2 µM
same,IC50,"[7]; read-out: TGI or IC50, total growth inhibition",27 µM
